{"source": "patent US4591559A", "about": "“Antibiotic X-14934A and a method for its preparation” (Hoffmann-La Roche Inc., priority 1985, dated 1986)", "system": "E. Tenella", "test": "Anti-coccidial activity against E. Tenella in chickens", "format": "in vivo", "conditions": "75 PPM in feed", "experimental": "This test utilizes ten chickens per drug group. Ten chickens are employed as a weight control and ten chickens as an infected control. The drug is given 48 hours in advance of the infection. One gm. of the test drug is mixed in a mechanical mixer with a sufficient amount of chicken feed to result in the desired dosage. The infection consists of approximately 200,000 oocysts given orally by pipette. The tests lasts for eleven days and the surviving bids are autopsied and examined for gross lesions in the ceca. The test bids are rated according to the number of survivors and the number of cecal lesions. The results are expressed as average degree of infection (A.D.I.). An average degree of infection of less than 2.5 is considered to be significant.", "data": [{"smiles": "CC[C@@H](C(=O)[C@@H](C)[C@@H](O)[C@H](C)CCc1ccc(C)c(O)c1C(=O)O)[C@H]1O[C@](CC)([C@H]2CC[C@](O)(CC)[C@H](C)O2)C[C@@H]1C", "note": "[Lasalocid]", "values": [{"measurement": "Mort. %", "value": 0, "unit": "%"}, {"measurement": "Weight Gain %", "value": 98, "unit": "%"}, {"measurement": "Ave. Degree Infect.", "setting": "<2.5 considered significant", "value": 0.0}]}]}
